Results as given in US20100215618A1, “NOVEL COMPOUNDS - 644” (Arrow Therapeutics Limited, priority 2009, published 2010).
pIC50: −log10 of the molar value. Where two headings read alike, the source gives them in different places.

Legend:
[1] = tested on: HCV genotype 1a replicon cells Htat2ANeo; test: 1a Replicon Assay (cell-based anti-NS5a ELISA); settings: Hepatitis C virus, 72 h; for pIC50: read-out: HCV IC50 Elisa 1a; for IC50: read-out: pIC50 1a Replicon (converted)
Method in brief: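 HCV 1a Htat2ANeo replicon cells (Et2AN control cells) exposed to compound for 72 h at 37° C without G418/blasticidin. NS5a quantified by cell-based ELISA (anti-NS5a, HRP/OPD, A490); IC50 from percentage reduction versus untreated control. Cytotoxicity TD50 by Cell Titre Blue fluorescence (ex 570/em 590 nm) versus DMSO controls.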

[2] = tested on: HCV replicon cells Huh 9B (genotype 1b); test: 1b Replicon Assay (luciferase readout); format: cell-based; settings: Hepatitis C virus, Huh 9B replicon cells, 72 h, luciferase activity; for pIC50: read-out: HCV IC50 1b Replicon; for IC50: read-out: pIC50 1b Replicon (converted)

Structure (SMILES): COC(=O)N[C@H](C(=O)N1CCC[C@H]1c1ncc(-c2ccc(-c3ccc(C(=O)Nc4ccc(CN5CCS(=O)(=O)CC5)cc4)cc3)cc2)[nH]1)C(C)C [Example 3, Methyl N-[(1S)-1-[(2S)-2-[5-[4-[4-[[4-[(1,1-dioxo-1,4-thiazinan-4-yl)methyl]phenyl]carbamoyl]phenyl]phenyl]-1H-imidazol-2-yl]pyrrolidine-1-carbonyl]-2-methyl-propyl]carbamate]
- pIC50 [1]: 8.19
- IC50 [1]: 6.46 nM
- pIC50 [2]: 9.47
- IC50 [2]: 0.339 nM

Structure (SMILES): COC(=O)N[C@H](C(=O)N1CCC[C@@H]1c1ncc(-c2ccc(-c3ccc(C(=O)Nc4ccc(CN5CCS(=O)(=O)CC5)cc4)cc3)cc2)[nH]1)C(C)C [Example 20, Methyl N-[(1S)-1-[(2R)-2-[5-[4-[4-[[4-[(1,1-dioxo-1,4-thiazinan-4-yl)methyl]phenyl]carbamoyl]phenyl]phenyl]-1H-imidazol-2-yl]pyrrolidine-1-carbonyl]-2-methyl-propyl]carbamate]
- pIC50 [1]: 5.83
- IC50 [1]: 1480 nM
- pIC50 [2]: 6.50
- IC50 [2]: 316 nM

Structure (SMILES): COC(=O)N[C@H](C(=O)N1CCOC[C@H]1c1ncc(-c2ccc(-c3ccc(C(=O)Nc4ccc(CN5CCS(=O)(=O)CC5)cc4)cc3)cc2)[nH]1)c1ccccc1 [Example 47, Methyl N-[(1S)-2-[(3R)-3-[5-[4-[4-[[4-[(1,1-dioxo-1,4-thiazinan-4-yl)methyl]phenyl]carbamoyl]phenyl]phenyl]-1H-imidazol-2-yl]morpholin-4-yl]-2-oxo-1-phenyl-ethyl]carbamate]
- pIC50 [1]: 7.13
- IC50 [1]: 74.1 nM
- pIC50 [2]: 9.55
- IC50 [2]: 0.275 nM

Structure (SMILES): COC(=O)N[C@H](C(=O)N1CCC[C@H]1c1ncc(-c2ccc(-c3ccc(C(=O)Nc4ccc(CN5CCS(=O)(=O)CC5)cc4)cc3)c(C)c2)[nH]1)C(C)C [Example 54, Methyl N-[(1S)-1-[(2S)-2-[5-[4-[4-[[4-[(1,1-dioxo-1,4-thiazinan-4-yl)methyl]phenyl]carbamoyl]phenyl]-3-methyl-phenyl]-1H-imidazol-2-yl]pyrrolidine-1-carbonyl]-2-methyl-propyl]carbamate]
- pIC50 [1]: 8.03
- IC50 [1]: 9.33 nM
- pIC50 [2]: 9.68
- IC50 [2]: 0.209 nM

Structure (SMILES): COC(=O)N[C@@H](C(=O)N1CCC[C@H]1c1ncc(-c2ccc(-c3ccc(C(=O)Nc4ccc(CN5CCS(=O)(=O)CC5)cc4)cc3)cc2)[nH]1)c1ccccc1 [Example 7, Methyl N-[(1R)-2-[(2S)-2-[5-[4-[4-[[4-[(1,1-dioxo-1,4-thiazinan-4-yl)methyl]phenyl]carbamoyl]phenyl]phenyl]-1H-imidazol-2-yl]pyrrolidin-1-yl]-2-oxo-1-phenyl-ethyl]carbamate]
- pIC50 [1]: 7.49
- IC50 [1]: 32.4 nM
- pIC50 [2]: 10.30
- IC50 [2]: 0.0468 nM

Structure (SMILES): CC(C)(C)OC(=O)N[C@@H](C(=O)N1CCC[C@H]1c1ncc(-c2ccc(-c3ccc(C(=O)Nc4ccc(CN5CCS(=O)(=O)CC5)cc4)cc3)cc2)[nH]1)c1ccccc1 [Example 2, Tert-butyl N-[(1R)-2-[(2S)-2-[5-[4-[4-[[4-[(1,1-dioxo-1,4-thiazinan-4-yl)methyl]phenyl]carbamoyl]phenyl]phenyl]-1H-imidazol-2-yl]pyrrolidin-1-yl]-2-oxo-1-phenyl-ethyl]carbamate]
- pIC50 [1]: 7.25
- IC50 [1]: 56.2 nM
- pIC50 [2]: 10.70
- IC50 [2]: 0.0204 nM

Structure (SMILES): CCN(CC)[C@@H](C(=O)N1CCC[C@H]1c1ncc(-c2ccc(-c3ccc(C(=O)Nc4ccc(CN5CCS(=O)(=O)CC5)cc4)cc3)cc2)[nH]1)c1ccccc1 [Example 8, 4-[4-[2-[(2S)-1-[(2R)-2-(diethylamino)-2-phenyl-acetyl]pyrrolidin-2-yl]-1H-imidazol-5-yl]phenyl]-N-[4-[(1,1-dioxo-1,4-thiazinan-4-yl)methyl]phenyl]benzamide]
- pIC50 [1]: 8.32
- IC50 [1]: 4.79 nM
- pIC50 [2]: 10.30
- IC50 [2]: 0.0468 nM

Structure (SMILES): COC(=O)N[C@H](C(=O)N1CCC[C@H]1c1ncc(-c2ccc(-c3ccc(C(=O)Nc4ccc(CN5CCS(=O)(=O)CC5)cc4)cc3)cc2)[nH]1)c1ccccc1 [Example 6, Methyl N-[(1S)-2-[(2S)-2-[5-[4-[4-[[4-[(1,1-dioxo-1,4-thiazinan-4-yl)methyl]phenyl]carbamoyl]phenyl]phenyl]-1H-imidazol-2-yl]pyrrolidin-1-yl]-2-oxo-1-phenyl-ethyl]carbamate]
- pIC50 [1]: 7.48
- IC50 [1]: 33.1 nM
- pIC50 [2]: 10.40
- IC50 [2]: 0.0417 nM

Structure (SMILES): CN(C)[C@@H](C(=O)N1CCC[C@H]1c1ncc(-c2ccc(-c3ccc(C(=O)Nc4ccc(CN5CCS(=O)(=O)CC5)cc4)cc3)cc2)[nH]1)c1ccccc1 [Example 9, 4-[4-[2-[(2S)-1-[(2R)-2-(dimethylamino)-2-phenyl-acetyl]pyrrolidin-2-yl]-1H-imidazol-5-yl]phenyl]-N-[4-[(1,1-dioxo-1,4-thiazinan-4-yl)methyl]phenyl]benzamide]
- pIC50 [1]: 7.88
- IC50 [1]: 13.2 nM
- pIC50 [2]: 10.00
- IC50 [2]: 0.1 nM

Structure (SMILES): COC(=O)N[C@H](C(=O)N1CCC[C@H]1c1ncc(-c2ccc(-c3ccc(C(=O)Nc4ccc(CN5CCS(=O)(=O)CC5)cc4)cc3)cc2)[nH]1)C(C)(C)C [Example 5, Methyl N-[(1S)-1-[(2S)-2-[5-[4-[4-[[4-[(1,1-dioxo-1,4-thiazinan-4-yl)methyl]phenyl]carbamoyl]phenyl]phenyl]-1H-imidazol-2-yl]pyrrolidine-1-carbonyl]-2,2-dimethyl-propyl]carbamate]
- pIC50 [1]: 7.48
- IC50 [1]: 33.1 nM
- pIC50 [2]: 9.14
- IC50 [2]: 0.741 nM

Structure (SMILES): CC[C@H](C)[C@H](NC(=O)OC)C(=O)N1CCC[C@H]1c1ncc(-c2ccc(-c3ccc(C(=O)Nc4ccc(CN5CCS(=O)(=O)CC5)cc4)cc3)cc2)[nH]1 [Example 16, Methyl N-[(1S,2S)-1-[(2S)-2-[5-[4-[4-[[4-[(1,1-dioxo-1,4-thiazinan-4-yl)methyl]phenyl]carbamoyl]phenyl]phenyl]-1H-imidazol-2-yl]pyrrolidine-1-carbonyl]-2-methyl-butyl]carbamate]
- pIC50 [1]: 8.08
- IC50 [1]: 8.32 nM
- pIC50 [2]: 9.89
- IC50 [2]: 0.132 nM

Structure (SMILES): COC(=O)N[C@@H](CC(C)C)C(=O)N1CCC[C@H]1c1ncc(-c2ccc(-c3ccc(C(=O)Nc4ccc(CN5CCS(=O)(=O)CC5)cc4)cc3)cc2)[nH]1 [Example 14, Methyl N-[(1S)-1-[(2S)-2-[5-[4-[4-[[4-[(1,1-dioxo-1,4-thiazinan-4-yl)methyl]phenyl]carbamoyl]phenyl]phenyl]-1H-imidazol-2-yl]pyrrolidine-1-carbonyl]-3-methyl-butyl]carbamate]
- pIC50 [1]: 7.80
- IC50 [1]: 15.8 nM
- pIC50 [2]: 9.44
- IC50 [2]: 0.355 nM

Structure (SMILES): CCCS(=O)(=O)N1CCN(Cc2ccc(NC(=O)c3ccc(-c4ccc(-c5cnc([C@@H]6CCCN6C(=O)[C@@H](NC(=O)OC)C(C)C)[nH]5)cc4)cc3)cc2)CC1 [Example 40, Methyl N-[(1S)-2-methyl-1-[(2S)-2-[5-[4-[4-[[4-[(4-propylsulfonylpiperazin-1-yl)methyl]phenyl]carbamoyl]phenyl]phenyl]-1H-imidazol-2-yl]pyrrolidine-1-carbonyl]propyl]carbamate]
- pIC50 [1]: 7.37
- IC50 [1]: 42.7 nM
- pIC50 [2]: 10.00
- IC50 [2]: 0.1 nM
